# Reference: ChEMBL document CHEMBL1201862, “PubChem BioAssay data set” (2004)
#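 96-well plates; 48 h exposure; 5 concentrations. Endpoints by linear interpolation between flanking doses. Not reached: highest tested concentration assigned. Abbreviation: GI50, concentration required for 50% inhibition of growth.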 Activity calls are given as the source filed them. Rule as the data show it: active = GI50 up to about 1.1 µM and inactive = higher.
# What was measured:
# Assay in all cases: inhibition of tumour cell growth, NCI panel, 48 h
# 786-0 = test system: 786-0
# A498 = test system: A498
# A549 = test system: A549
# ACHN = test system: ACHN
# BT-549 = test system: BT-549
# CAKI-1 = test system: CAKI-1
# CCRF-CEM = test system: CCRF-CEM
# COLO 205 = test system: COLO 205
# DU-145 = test system: DU-145
# EKVX = test system: EKVX
# HCC 2998 = test system: HCC 2998
# HCT-116 = test system: HCT-116
# HCT-15 = test system: HCT-15
# HL-60 = test system: HL-60
# HOP-62 = test system: HOP-62
# HOP-92 = test system: HOP-92
# HT-29 = test system: HT-29
# Hs-578T = test system: Hs-578T
# IGROV-1 = test system: IGROV-1
# K562 = test system: K562
# KM12 = test system: KM12
# LOX IMVI = test system: LOX IMVI
# M14 = test system: M14
# MCF7 = test system: MCF7
# MDA-MB-231 = test system: MDA-MB-231
# MDA-MB-435 = test system: MDA-MB-435
# MDA-N = test system: MDA-N
# MOLT-4 = test system: MOLT-4
# Malme-3M = test system: Malme-3M
# NCI-H226 = test system: NCI-H226
# NCI-H23 = test system: NCI-H23
# NCI-H460 = test system: NCI-H460
# NCI-H522 = test system: NCI-H522
# NCI/ADR-RES = test system: NCI/ADR-RES
# OVCAR-3 = test system: OVCAR-3
# OVCAR-4 = test system: OVCAR-4
# OVCAR-5 = test system: OVCAR-5
# OVCAR-8 = test system: OVCAR-8
# PC-3 = test system: PC-3
# RPMI-8226 = test system: RPMI-8226
# RXF 393 = test system: RXF 393
# SF-268 = test system: SF-268
# SF-295 = test system: SF-295
# SF-539 = test system: SF-539
# SK-MEL-28 = test system: SK-MEL-28
# SK-MEL-2 = test system: SK-MEL-2
# SK-MEL-5 = test system: SK-MEL-5
# SK-OV-3 = test system: SK-OV-3
# SN12C = test system: SN12C
# SNB-19 = test system: SNB-19
# SNB-75 = test system: SNB-75
# SR = test system: SR
# SW-620 = test system: SW-620
# T47D = test system: T47D
# TK-10 = test system: TK-10
# U-251 = test system: U-251
# UACC-257 = test system: UACC-257
# UACC-62 = test system: UACC-62
# UO-31 = test system: UO-31
# DLD-1 = test system: DLD-1
# HOP-18 = test system: HOP-18
# KM-20L2 = test system: KM-20L2
# LXFL 529 = test system: LXFL 529
# M19-MEL = test system: M19-MEL
# SNB-78 = test system: SNB-78
compound,measurement,setting,value
CC(=O)OC1C(C)OC(OC2C[C@](O)(C(C)=O)Cc3c(O)c4c(c(O)c32)C(=O)c2ccccc2C4=O)C(F)C1OC(C)=O (stereo partly drawn),GI50,786-0,0.287 µM (active)
same,GI50,A498,0.791 µM (active)
same,GI50,A549,0.154 µM (active)
same,GI50,ACHN,0.114 µM (active)
same,GI50,BT-549,1.04 µM (active)
same,GI50,CAKI-1,0.13 µM (active)
same,GI50,CCRF-CEM,0.197 µM (active)
same,GI50,COLO 205,1.98 µM (inactive)
same,GI50,DU-145,0.23 µM (active)
same,GI50,EKVX,3.68 µM (inactive)
same,GI50,HCC 2998,1.91 µM (inactive)
same,GI50,HCT-116,0.318 µM (active)
same,GI50,HCT-15,0.358 µM
same,GI50,HL-60,0.154 µM (active)
same,GI50,HOP-62,0.367 µM (active)
same,GI50,HOP-92,0.457 µM (active)
same,GI50,HT-29,1.42 µM (inactive)
same,GI50,Hs-578T,0.476 µM (active)
same,GI50,IGROV-1,0.243 µM (active)
same,GI50,K562,1.63 µM (inactive)
same,GI50,KM12,1.85 µM (inactive)
same,GI50,LOX IMVI,0.156 µM (active)
same,GI50,M14,0.735 µM (active)
same,GI50,MCF7,0.0474 µM (active)
same,GI50,MDA-MB-231,1.06 µM (active)
same,GI50,MDA-MB-435,2.25 µM (inactive)
same,GI50,MDA-N,1.88 µM (inactive)
same,GI50,MOLT-4,< 0.0142 µM (active)
same,GI50,Malme-3M,1.14 µM (inactive)
same,GI50,NCI-H226,0.335 µM (active)
same,GI50,NCI-H23,0.245 µM (active)
same,GI50,NCI-H460,0.0353 µM (active)
same,GI50,NCI-H522,0.61 µM (active)
same,GI50,NCI/ADR-RES,1.45 µM (inactive)
same,GI50,OVCAR-3,2.52 µM (inactive)
same,GI50,OVCAR-4,3.74 µM (inactive)
same,GI50,OVCAR-5,0.916 µM (active)
same,GI50,OVCAR-8,0.543 µM (active)
same,GI50,PC-3,0.971 µM (active)
same,GI50,RPMI-8226,0.175 µM (active)
same,GI50,RXF 393,2.74 µM (inactive)
same,GI50,SF-268,0.541 µM (active)
same,GI50,SF-295,0.13 µM (active)
same,GI50,SF-539,0.194 µM (active)
same,GI50,SK-MEL-28,3.4 µM (inactive)
same,GI50,SK-MEL-2,3.11 µM (inactive)
same,GI50,SK-MEL-5,0.408 µM (active)
same,GI50,SK-OV-3,0.617 µM (active)
same,GI50,SN12C,0.281 µM (active)
same,GI50,SNB-19,0.245 µM (active)
same,GI50,SNB-75,0.417 µM (active)
same,GI50,SR,0.101 µM (active)
same,GI50,SW-620,0.495 µM (active)
same,GI50,T47D,0.522 µM (active)
same,GI50,TK-10,1.6 µM (inactive)
same,GI50,U-251,0.238 µM (active)
same,GI50,UACC-257,1.8 µM (inactive)
same,GI50,UACC-62,0.387 µM (active)
same,GI50,UO-31,0.115 µM (active)
CC1(C)COC2C(N(Cc3ccccc3)Cc3ccccc3)C(=O)N21 (stereo not drawn),GI50,786-0,31 µM (inactive)
same,GI50,A498,48.8 µM (inactive)
same,GI50,A549,32.6 µM (inactive)
same,GI50,ACHN,35.6 µM (inactive)
same,GI50,CAKI-1,39.2 µM (inactive)
same,GI50,CCRF-CEM,32.7 µM (inactive)
same,GI50,COLO 205,25.1 µM (inactive)
same,GI50,DLD-1,50 µM (inactive)
same,GI50,EKVX,73.1 µM (inactive)
same,GI50,HCC 2998,41.7 µM (inactive)
same,GI50,HCT-116,33.4 µM (inactive)
same,GI50,HCT-15,39.6 µM
same,GI50,HL-60,22.3 µM (inactive)
same,GI50,HOP-18,50 µM (inactive)
same,GI50,HOP-62,36.9 µM (inactive)
same,GI50,HOP-92,29.3 µM (inactive)
same,GI50,HT-29,31.8 µM (inactive)
same,GI50,IGROV-1,41.9 µM (inactive)
same,GI50,K562,27.9 µM (inactive)
same,GI50,KM-20L2,37.1 µM (inactive)
same,GI50,KM12,37.8 µM (inactive)
same,GI50,LOX IMVI,46.6 µM (inactive)
same,GI50,LXFL 529,51.3 µM (inactive)
same,GI50,M14,23.1 µM (inactive)
same,GI50,M19-MEL,73.8 µM (inactive)
same,GI50,MOLT-4,25.9 µM (inactive)
same,GI50,Malme-3M,38.6 µM (inactive)
same,GI50,NCI-H226,47.2 µM (inactive)
same,GI50,NCI-H23,34.3 µM (inactive)
same,GI50,NCI-H460,39.7 µM (inactive)
same,GI50,NCI-H522,19.4 µM (inactive)
same,GI50,OVCAR-3,30.5 µM (inactive)
same,GI50,OVCAR-4,27.9 µM (inactive)
same,GI50,OVCAR-5,> 100 µM (inactive)
same,GI50,OVCAR-8,32.1 µM (inactive)
same,GI50,RPMI-8226,20.9 µM (inactive)
same,GI50,RXF 393,19.3 µM (inactive)
same,GI50,SF-268,25.2 µM (inactive)
same,GI50,SF-295,32.1 µM (inactive)
same,GI50,SF-539,25.9 µM (inactive)
same,GI50,SK-MEL-28,42.3 µM (inactive)
same,GI50,SK-MEL-5,37.2 µM (inactive)
same,GI50,SK-OV-3,24.9 µM (inactive)
same,GI50,SN12C,47.3 µM (inactive)
same,GI50,SNB-19,24 µM (inactive)
same,GI50,SNB-75,20 µM (inactive)
same,GI50,SNB-78,42.6 µM (inactive)
same,GI50,SR,19.1 µM (inactive)
same,GI50,SW-620,35.9 µM (inactive)
same,GI50,TK-10,37.2 µM (inactive)
same,GI50,U-251,26.3 µM (inactive)
same,GI50,UACC-257,98.6 µM (inactive)
same,GI50,UACC-62,25.1 µM (inactive)
same,GI50,UO-31,64.3 µM (inactive)
